The data set can be described thus: RP, Thermo Scientific Acclaim RSLC 120 C18, 100 × 2.1 mm, 2.2 µm, 30 °C, 0.2 mL/min, estimated dead time 1.1 min; A: 90% water + 10% methanol + 0.01% formic acid + 5 mM ammonium formate, pH 3.61; B: methanol + 0.01% formic acid + 5 mM ammonium formate, pH 3.61; gradient (min/%B) 0/1 1/1 2/39 13/99.9 15/99.9 15.1/1 20.1/1. Particulars: stereoisomer not certain.
In the case of `COP(=S)(OC)SCn1nnc2ccccc2c1=O` [Azinphos-methyl (Guthion)], the LC retention time is 8.89 min.

With `CSc1nc(N=[N+]=[N-])nc(NC(C)C)n1` [Aziprotryne], the LC retention time was 9.71 min. The result for `CCC1OC(=O)C(C)C(OC2CC(C)(OC)C(O)C(C)O2)C(C)C(OC2OC(C)CC(N(C)C)C2O)C(C)(O)CC(C)CN(C)C(C)C(O)C1(C)O` (stereo unspecified) [Azithromycin] reads 5.98 min; that for `COC=C(C(=O)O)c1ccccc1Oc1cc(Oc2ccccc2C#N)ncn1` [Azoxystrobin acid], 8.18 min. As to `COC=C(C(=O)OC)c1ccccc1Oc1cc(Oc2ccccc2C#N)ncn1` [Azoxystrobin], the LC retention time was 9.02 min.

For the compound `O=C(Oc1cccc2cccnc12)c1cn(CC2CCCCC2)c2ccccc12` [BB-22], the LC retention time was 12.4 min. Turning to `CCC(N)Cc1ccc2c(c1)OCO2` (stereo unspecified) [BDB], the LC retention time is 4.73 min. For the compound `NCC(CC(=O)O)c1ccc(Cl)cc1` (stereo unspecified) [Baclofen], the LC retention time was 4.27 min. The result for `CN(C)C(=O)Oc1cc(OC(=O)N(C)C)cc(C(O)CNC(C)(C)C)c1` (stereo unspecified) [Bambuterol] reads 5.16 min; that for `CCN(CCO)CCn1c(Cc2ccccc2)nc2c1c(=O)n(C)c(=O)n2C` [Bamifylline], 5.24 min; that for `CN1CCC(N(Cc2ccccc2)c2ccccc2)CC1` [Bamipine], 7.77 min. With `O=C(Nc1cccc(Cl)c1)OCC#CCCl` [Barban], the LC retention time is 9.74 min.

For the compound `O=C1N(CCN2CCCCC2)C(=O)C(c2ccccc2)(N2CCCCC2)C(=O)N1CCN1CCCCC1` [Barverin], the LC retention time was 7.64 min. For `O=C(CCCl)NCc1ccccc1` [Beclamide], the LC retention time is 6.27 min.

As for `CCC(Oc1ccc(F)c(C(F)(F)F)c1)C(=O)NCc1ccccc1` (stereo unspecified) [Beflubutamide], the LC retention time was 10.6 min.

Turning to `CC(=O)c1cc2cccc(OCC(O)CNC(C)C)c2o1` (stereo unspecified) [Befunolol], the LC retention time is 4.93 min. On to `CCN(CC)CCOC(=O)C(O)(c1ccccc1)c1ccccc1` [Benactyzine], for which the LC retention time is 6.08 min. The result for `COC(=O)C(C)N(C(=O)Cc1ccccc1)c1c(C)cccc1C` (stereo unspecified) [Benalaxyl] reads 10.9 min; that for `O=C(O)Cn1c(=O)sc2cccc(Cl)c21` [Benazolin], 5.58 min. Turning to `CNC(=O)Oc1cccc2c1OC(C)(C)O2` [Bendiocarb], the LC retention time is 7.02 min.

Turning to `NS(=O)(=O)c1cc2c(cc1C(F)(F)F)NC(Cc1ccccc1)NS2(=O)=O` (stereo unspecified) [Bendroflumethiazide], the LC retention time was 6.82 min. The result for `CCOC(=O)CCN(SN(C)C(=O)Oc1cccc2c1OC(C)(C)C2)C(C)C` [Benfuracarb] reads 11.9 min. As for `O=C(Nc1ccccc1)c1ccccc1I` [Benodanil], the LC retention time was 8.02 min. The result for `CCCCNC(=O)n1c(NC(=O)OC)nc2ccccc21` [Benomyl (decomposed to Carbendazim)] reads 5.46 min; that for `CC(=O)Nc1ccc(OC(=O)c2ccccc2OC(C)=O)cc1` [Benorilate], 7.41 min; that for `CC1COc2ccccc2N1C(=O)C(Cl)Cl` (stereo unspecified) [Benoxacor], 8.87 min. With `O=C(CCCN1CCC(n2c(=O)[nH]c3ccccc32)CC1)c1ccc(F)cc1` [Benperidol], the LC retention time was 5.96 min. The result for `CC(COc1ccccc1Cc1ccccc1)N1CCCCC1` (stereo unspecified) [Benproperine] reads 8.32 min; that for `NC(CO)C(=O)NNCc1ccc(O)c(O)c1O` (stereo unspecified) [Benserazide], 1.38 min.

Consider `COC(=O)c1ccccc1CS(=O)(=O)NC(=O)Nc1nc(OC)cc(OC)n1` [Bensulfuron-methyl], for which the LC retention time is 8.77 min. As to `CN(C)C(CSS(=O)(=O)c1ccccc1)CSS(=O)(=O)c1ccccc1` [Bensultap], the LC retention time was 9.6 min.

For `O=C1CN=C(c2ccccc2)c2c(sc3c2CCCC3)N1` [Bentazepam], the LC retention time was 9.49 min. The result for `CC(C)N1C(=O)c2ccccc2NS1(=O)=O` [Bentazone] reads 5.22 min; that for `CC(C)OC(=O)NC(C(=O)NC(C)c1nc2ccc(F)cc2s1)C(C)C` (stereo unspecified) [Benthiavalicarb-isopropyl], 9.48 min; that for `COc1ccc(CNC(=O)c2cc([N+](=O)[O-])ccc2NC(C)CO)cc1OC` (stereo unspecified) [Benzamidenafil], 7.8 min. On to `N=C(N)c1ccccc1` [Benzamidine], for which the LC retention time is 2.63 min. For the compound `CN1C2CCC1CC(OC(c1ccccc1)c1ccccc1)C2` (stereo unspecified) [Benzatropine], the LC retention time is 7.97 min. As to `CC(C)(C)CC(C)(C)c1ccc(OCCOCC[N+](C)(C)Cc2ccccc2)cc1` [Benzethonium], the LC retention time is 11.6 min.

As for `CCOC(=O)c1ccc(N)cc1` [Benzocaine], the LC retention time is 6.27 min. As for `CNCC12CCC(c3ccccc31)c1ccccc12` [Benzoctamine], the LC retention time was 6.52 min. The result for `CCCCCCCCCCCC[N+](C)(C)Cc1ccccc1` [Benzododecinium (Benzyl-dimethyl-dodecylammonium)] reads 11.2 min; that for `CC(N)Cc1ccc2ccoc2c1` (stereo unspecified) [Benzofuran-6-ylpropan-2-amine<U+00A0>(6-APB)], 4.81 min. Take `Nc1ccc([N+](=O)[O-])cc1C(=O)c1ccccc1` [Benzophenone -2-Amino-5-nitro]: the LC retention time was 8.99 min.

As for `COc1cc(O)c(C(=O)c2ccccc2)cc1S(=O)(=O)O` [Benzophenone-4], the LC retention time was 6.19 min. Turning to `Nc1ccc(Cl)cc1C(=O)c1ccccc1` [Benzophenone- 2-Amino-5-chloro], the LC retention time is 10.5 min.

With `O=C(c1ccc(Cl)cc1)c1ccc(Cl)cc1` [Benzophenone-p.p-Dichloro], the LC retention time was 11.9 min. The result for `c1ccc2scnc2c1` [Benzothiazole (BTH)] reads 6.88 min. On to `O=c1[nH]c2ccccc2s1` [Benzothiazole -2-OH], for which the LC retention time was 6.53 min. On to `CSc1nc2ccccc2s1` [Benzothiazole- 2-Me-S], for which the LC retention time is 9.79 min. As for `S=c1[nH]c2ccccc2s1` [Benzothiazole-Mercapto], the LC retention time was 6.89 min.

With `Cn1nnc2ccccc21` [Benzotriazole -1-Methyl], the LC retention time was 5.11 min. The result for `Cc1cccc2n[nH]nc12` [Benzotriazole -4-Me] reads 5.83 min; that for `On1nnc2ccccc21` [Benzotriazole-1-Hydroxy], 3.88 min; that for `Cc1cc2n[nH]nc2cc1C` [Benzotriazole-5 6-di-Me], 6.76 min. Regarding `O=C(O)C1=CC=C2N=NN=C2C1` [Benzotriazole-5-carboxylic acid], the LC retention time is 3.81 min. Turning to `Cc1ccc2n[nH]nc2c1` [Benzotriazole- 5-Me], the LC retention time is 5.83 min. Take `Cln1nnc2ccccc21` [Benzotriazole-chloro]: the LC retention time is 6.53 min. For the compound `CCON=C(OC(=O)c1ccccc1)c1c(OC)ccc(Cl)c1OC` [Benzoximate], the LC retention time is 11.3 min. As for `CCCCCCCCCCCC[N+](CCO)(CCO)Cc1ccccc1` [Benzoxonium], the LC retention time is 11.3 min. Regarding `CN1C2CCC1C(C(=O)O)C(OC(=O)c1ccccc1)C2` (stereo unspecified) [Benzoylecgonine], the LC retention time is 4.68 min. For `CCOC(=O)C(C)N(C(=O)c1ccccc1)c1ccc(Cl)c(Cl)c1` (stereo unspecified) [Benzoylprop-ethyl], the LC retention time is 11 min.

As to `NS(=O)(=O)c1cc2c(cc1Cl)NC(CSCc1ccccc1)=NS2(=O)=O` [Benzthiazide], the LC retention time is 6.81 min. For the compound `CNC(=O)Nc1nc2ccccc2s1` [Benzthiazuron], the LC retention time was 7.13 min.

Turning to `CCCCCCCCCCCCCCCC[N+](C)(C)Cc1ccccc1` [Benzyldimethylhexadecylammonium], the LC retention time is 13.1 min.

For the compound `CCCCCCCCCCCCCC[N+](C)(C)Cc1ccccc1` [Benzyldimethyltetradecylammonium], the LC retention time was 12.2 min. `c1ccc(CN2CCNCC2)cc1` [Benzylpiperazine]: the LC retention time is 4.23 min. The result for `O=C1OCC(O)=C1Cc1ccccc1` [Benzyltetronic acid (2-)] reads 5.06 min; that for `CC(=O)OCC(=O)C1(O)C(C)CC2C3CCC4=CC(=O)C=CC4(C)C3(F)C(O)CC21C` (stereo unspecified) [Betamethasone acetate], 9.37 min. Regarding `CCC(=O)OCC(=O)C1(OC(=O)CC)C(C)CC2C3CCC4=CC(=O)C=CC4(C)C3(F)C(O)CC21C` (stereo unspecified) [Betamethasone dipropionate], the LC retention time is 11.3 min. The result for `CCCCC(=O)OC1(C(=O)CO)C(C)CC2C3CCC4=CC(=O)C=CC4(C)C3(F)C(O)CC21C` (stereo unspecified) [Betamethasone-17-valerate] reads 11 min; that for `CC(C)NCC(O)COc1ccc(CCOCC2CC2)cc1` (stereo unspecified) [Betaxolol], 6.68 min. The result for `CN=C(NC)NCc1ccccc1` [Bethanidine] reads 3.97 min; that for `C=C(c1ccc(C(=O)O)cc1)c1cc2c(cc1C)C(C)(C)CCC2(C)C` [Bexarotene], 14.1 min. The result for `CC(C)(Oc1ccc(CCNC(=O)c2ccc(Cl)cc2)cc1)C(=O)O` [Bezafibrate] reads 8.77 min. Consider `CC(O)(CS(=O)(=O)c1ccc(F)cc1)C(=O)Nc1ccc(C#N)c(C(F)(F)F)c1` (stereo unspecified) [Bicalutamide], for which the LC retention time was 8.71 min. Regarding `COc1ccc(-c2ccccc2)cc1NNC(=O)OC(C)C` [Bifenazate], the LC retention time was 9.87 min.

The record behind these values is the RepoRT retention time repository (doi:10.1021/acs.analchem.2c02893).
